Laboratory results taken from PMC3743547 (Biochemistry, 2013).

How the values were obtained:
MppR [1] = molecular target: T1, MppR (Streptomyces hygroscopicus, UniProt Q643B8); assay: steady-state kinetics of aldol condensation; type: biochemical; settings: co-substrate pyruvate; no saturation below the solubility limit
MppR [2] = molecular target: T1, MppR; assay: X-ray crystal structure, […] Å; type: binding; settings: covalent; Schiff base with Lys156; 30 mM sodium pyruvate, 24 h soak

| Km (MppR [1]) | SMILES | X-ray crystal structure, 1.72 Å (crystal soak) (MppR [2]) |
| --- | --- | --- |
| > 50 mM | O=Cc1c[nH]cn1 [compound 6, 4-imidazolecarboxaldehyde] | – |
| – | CC(=O)C(=O)O [pyruvate] | resulting structure showed pyruvate covalently bound to Lys156 as the Schiff base |
